This note sets out measurements from the SangsterLogP compilation.

Each structure is given as a SMILES string.

A short description of this data set: method code SF-AS, from DOI: 10.1016/s0045-6535(98)00132-5, PMID: 9753760.

Regarding `Cc1ccc(NC(=O)c2cc([N+](=O)[O-])ccc2O)cc1`, the logP was 2.22.

`CCOc1ccccc1NC(=O)c1cccc([N+](=O)[O-])c1O` had a logP of 2.04.

Compound `COc1ccc(NC(=O)c2cc([N+](=O)[O-])ccc2O)cc1` showed a log partition coefficient (logP) of 2.19.

Consider `Cc1ccc(Cl)cc1NC(=O)c1cccc([N+](=O)[O-])c1O`, for which the logP was 2.24.

In turn, `Cc1ccc(Cl)cc1NC(=O)c1cc([N+](=O)[O-])ccc1O` displayed a logP of 2.61.

With `O=C(Nc1ccc(Cl)cc1)c1cc([N+](=O)[O-])ccc1O`, the logP came out at 2.54.

Turning to `Cc1ccccc1NC(=O)c1cccc([N+](=O)[O-])c1O`, the logP worked out at 1.9.

Compound `CCOc1ccccc1NC(=O)c1cc([N+](=O)[O-])ccc1O` yielded a logP of 2.34.

`O=C(Nc1ccc(Cl)cc1)c1cccc([N+](=O)[O-])c1O` gave a logP of 2.16.

The compound `CCOc1ccc(NC(=O)c2cccc([N+](=O)[O-])c2O)cc1` registered a logP of 1.98.

`Cc1c(Cl)cccc1NC(=O)c1cccc([N+](=O)[O-])c1O` showed a logP of 2.32.

For `Cc1ccc(NC(=O)c2cccc([N+](=O)[O-])c2O)cc1`, the logP turned out to be 1.94.

In the case of `Cc1c(Cl)cccc1NC(=O)c1cc([N+](=O)[O-])ccc1O`, the logP turned out to be 2.64.

`COc1ccc(NC(=O)c2cccc([N+](=O)[O-])c2O)cc1`: the logP turned out to be 1.83.
